The results in this text go back to ChEMBL document CHEMBL1134079, “Synthesis and pharmacological evaluation of 2,5-cycloamino-5H-[1]benzopyrano[4,3-d]pyrimidines endowed with in vitro antiplatelet activity” (Bioorg Med Chem Lett, 2001).

By IC50 is commonly meant the point on the concentration scale where inhibition reaches its midpoint.

The first experiment is filed under the species Cavia porcellus. In words: Evaluated for in vitro antiplatelet activity against guinea pig platelet rich plasma aggregated by arachidonic acid (AA).
Conditions: not given
Type of experiment: functional.
In turn, `CC(=O)Oc1ccccc1C(=O)O` [ASPIRIN] returned an IC50 of 61 µM.

The experiment is the same for the next values; noted with them: read-out: IC50.
Consider `c1ccc2c(c1)OC(N1CCOCC1)c1cnc(N3CCCC3)nc1-2` (stereo not given), for which the IC50 is 75 µM.

`c1ccc2c(c1)OC(N1CCOCC1)c1cnc(N3CCOCC3)nc1-2` (stereo not given): the IC50 amounted to 95 µM.

For the molecule `c1ccc2c(c1)OC(N1CCOCC1)c1cnc(N3CCCCC3)nc1-2` (stereo not given), the 50% inhibitory concentration (IC50) worked out at 25 µM.

With `c1ccc2c(c1)OC(N1CCCC1)c1cnc(N3CCCC3)nc1-2` (stereo not given), the IC50 came out at 80 µM.

For the molecule `c1ccc2c(c1)OC(N1CCCC1)c1cnc(N3CCOCC3)nc1-2` (stereo not given), the IC50 was 430 µM.

As to `CSc1ncc2c(n1)-c1ccccc1OC2N1CCCC1` (stereo not given), the IC50 amounted to 85 µM.

`c1ccc2c(c1)OC(N1CCCCC1)c1cnc(N3CCCC3)nc1-2` (stereo not given): the IC50 turned out to be 90 µM.

On to `Nc1ncc2c(n1)-c1ccccc1OC2N1CCCC1` (stereo not given), for which the IC50 amounted to 400 µM.

A further experiment is filed under the species Cavia porcellus. In words: In vitro antiplatelet activity against guinea pig platelet rich plasma aggregated by collagen. The format is functional.
Conditions: not given
As for `CC(=O)Oc1ccccc1C(=O)O` [ASPIRIN], the IC50 worked out at 48 µM.

The experiment is the same for the next values; noted with them: read-out: IC50.
For `c1ccc2c(c1)OC(N1CCOCC1)c1cnc(N3CCCC3)nc1-2` (stereo not given), the 50% inhibitory concentration (IC50) stood at 50 µM.

On to `c1ccc2c(c1)OC(N1CCOCC1)c1cnc(N3CCOCC3)nc1-2` (stereo not given), for which the IC50 turned out to be 60 µM.

Take `c1ccc2c(c1)OC(N1CCOCC1)c1cnc(N3CCCCC3)nc1-2` (stereo not given): the IC50 amounted to 60 µM.

For `c1ccc2c(c1)OC(N1CCCC1)c1cnc(N3CCCC3)nc1-2` (stereo not given), the IC50 worked out at 170 µM.

For `c1ccc2c(c1)OC(N1CCCC1)c1cnc(N3CCOCC3)nc1-2` (stereo not given), the IC50 is 80 µM.

Take `c1ccc2c(c1)OC(N1CCCCC1)c1cnc(N3CCOCC3)nc1-2` (stereo not given): the IC50 came to 200 µM.

A further experiment is filed under the species Cavia porcellus. In words: Evaluated for in vitro antiplatelet activity against guinea pig platelet rich plasma aggregated by […] (ADP). Type of experiment: functional.
Conditions: not given
`c1ccc2c(c1)OC(N1CCCC1)c1cnc(N3CCCC3)nc1-2` (stereo not given) had a half-inhibitory concentration (IC50) of 200 µM.

For `c1ccc2c(c1)OC(N1CCCC1)c1cnc(N3CCOCC3)nc1-2` (stereo not given), it took 250 µM to reach half-maximal inhibition (IC50).

`CSc1ncc2c(n1)-c1ccccc1OC2N1CCCC1` (stereo not given) had an IC50 of 180 µM.

In the case of `Nc1ncc2c(n1)-c1ccccc1OC2N1CCCC1` (stereo not given), the midpoint of inhibition, the IC50, lay at 750 µM.
